The IC50 is the midpoint of a concentration-inhibition curve.

Structures are written as SMILES. Some results are limits rather than exact numbers.

IC50 data for 28 molecules are collected here from patent US20240317721A1, “PYRAZOLYL DERIVATIVES AS INHIBITORS OF THE KRAS MUTANT PROTEIN” (NOVARTIS AG, priority 2021, published 2024).

The experiment deals with KRasG12C (M1-K169, biotinylated on the N-terminus) (Homo sapiens (Human), UniProt P01116, G12C). The experiment is described as follows: Covalent competition assay: scintillation proximity assay (SPA) quantifying covalent modification of KRASG12C. The format is binding. To be noted: competition with radiolabeled covalent probe (Compound B/Compound A), 2 hours incubation, 10 nM KRasG12C. In a few lines:
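Test compounds compete with a radiolabeled covalent probe for modification of N-terminally biotinylated KRasG12C(M1-K169):GDP, final 10 nM protein, 25 nM radio-ligand, 475 nM unlabelled ligand, 2 h with agitation in 20 mM Tris-HCl pH 7.5, 150 mM NaCl, 0.1 mM MgCl2, 0.01% Tween-20.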
Regarding `C=CC(=O)N1CC2(CC(n3nc(N4CC=C(CN5CCOCC5)CC4(C)C)c(-c4c(Cl)c(Cl)cc5[nH]ncc45)c3C)C2)C1` (single isomer, unassigned) [Example 220a, 1-(6-(4-(5,6-dichloro-1H-indazol-4-yl)-3-(2,2-dimethyl-4-(morpholinomethyl)-3,6-dihydropyridin-1(2H)-yl)-5-methyl-1H-pyrazol-1-yl)-2-azaspiro[3.3]heptan-2-yl)prop-2-en-1-one], the IC50 was more than 5 µM.
`C=CC(=O)N1CC2(CC(n3nc(N4CCC(N5C[C@@H]6C[C@H]5CO6)CC4(C)C)c(-c4c(Cl)c(C)cc5[nH]ncc45)c3C)C2)C1` (single isomer, unassigned) [Example 83a]: the IC50 is more than 5 µM.
The figure for `C=CC(=O)N1CC2(CC(n3nc(N4CC[C@@H](CN5CCN6C[C@@H](O)C[C@@H]6C5)CC4(C)C)c(-c4c(Cl)c(Cl)cc5[nH]ncc45)c3C)C2)C1` (single isomer, unassigned) [Example 287b] is 0.009 µM; for `C=CC(=O)N1CC2(CC(n3nc(N4[C@@H](C)CN(C(C)=O)C[C@@H]4C)c(-c4c(Cl)c(C)cc5[nH]ncc45)c3C)C2)C1` (single isomer, unassigned) [Example 56a] it is more than 50 µM.
The same measure for `C=CC(=O)N1CC2(CC(n3nc(N4CCC(CN5CC6CC(C5)O6)CC4(C)C)c(-c4c(Cl)c(Cl)cc5[nH]ncc45)c3C)C2)C1` (single isomer, unassigned) [Example 228a, 1-(6-(3-(4-((6-oxa-3-azabicyclo[3.1.1]heptan-3-yl)methyl)-2,2-dimethylpiperidin-1-yl)-4-(5,6-dichloro-1H-indazol-4-yl)-5-methyl-1H-pyrazol-1-yl)-2-azaspiro[3.3]heptan-2-yl)prop-2-en-1-one]: more than 5 µM.
The figure for `C=CC(=O)N1CC2(CC(n3nc(N4CCN(CC5(O)CC5)CC45CCC5)c(-c4c(Cl)c(C)cc5[nH]ncc45)c3C)C2)C1` (single isomer, unassigned) [Example 154b, 1-(6-(4-(5-chloro-6-methyl-1H-indazol-4-yl)-3-(8-((1-hydroxycyclopropyl)methyl)-5,8-diazaspiro[3.5]nonan-5-yl)-5-methyl-1H-pyrazol-1-yl)-2-azaspiro[3.3]heptan-2-yl)prop-2-en-1-one] is 0.022 µM.
On to `C=CC(=O)N1CC2(CC(n3nc(N4CCN(CCOC)C[C@]4(C)C(F)F)c(-c4c(Cl)c(C)cc5[nH]ncc45)c3C)C2)C1` (single isomer, unassigned) [Example 178b], for which the IC50 is 0.048 µM.
The figure for `C=CC(=O)N1CC2(CC(n3nc(N4CCC(N5C[C@H]6C[C@@H]5CN6S(C)(=O)=O)CC4(C)C)c(-c4c(Cl)c(Cl)cc5[nH]ncc45)c3C)C2)C1` (single isomer, unassigned) [Example 212b] is 0.012 µM; for `C/C=C/C(=O)N1CC2(CC(n3nc(N4CCN(C5COC5)CC45CCC5)c(-c4c(Cl)c(C)cc5[nH]ncc45)c3C)C2)C1` (single isomer, unassigned) [Example 138a, (E)-1-(6-(4-(5-chloro-6-methyl-1H-indazol-4-yl)-5-methyl-3-(8-(oxetan-3-yl)-5,8-diazaspiro[3.5]nonan-5-yl)-1H-pyrazol-1-yl)-2-azaspiro[3.3]heptan-2-yl)but-2-en-1-one] it is more than 5 µM; for `C=CC(=O)N1CC2(CC(n3nc(N4CC(=O)N(C)CC45CCC5)c(-c4c(Cl)c(C)cc5[nH]ncc45)c3C)C2)C1` (single isomer, unassigned) [Example 65b, 5-(1-(2-acryloyl-2-azaspiro[3.3]heptan-6-yl)-4-(5-chloro-6-methyl-1H-indazol-4-yl)-5-methyl-1H-pyrazol-3-yl)-8-methyl-5,8-diazaspiro[3.5]nonan-7-one] it is 0.212 µM.
For `C=CC(=O)N1CC2(CC(n3nc(N4CCN(C[C@@H]5COCCO5)C[C@]4(C)COC)c(-c4c(Cl)c(C)cc5[nH]ncc45)c3C)C2)C1` (single isomer, unassigned) [Example 181a], the IC50 was found to be 0.929 µM.
The figure for `C=CC(=O)N1CC2(CC(n3nc(N4CCn5nccc5C4)c(-c4c(Cl)c(C)cc5[nH]ncc45)c3C)C2)C1` (single isomer, unassigned) [Example 10b, 1-(6-(4-(5-Chloro-6-methyl-1H-indazol-4-yl)-3-(6,7-dihydropyrazolo[1,5-a]pyrazin-5(4H)-yl)-5-methyl-1H-pyrazol-1-yl)-2-azaspiro[3.3]heptan-2-yl)prop-2-en-1-one] is 0.105 µM; for `C=CC(=O)N1CC2(CC(n3nc(N4CCC(CN5C[C@@H]6OCCO[C@@H]6C5)CC4(C)C)c(-c4c(Cl)c(Cl)cc5[nH]ncc45)c3C)C2)C1` (single isomer, unassigned) [Example 231a] it is more than 5 µM; for `C=CC(=O)N1CC2(CC(n3nc(N4CCn5nccc5C4(C)C)c(-c4c(Cl)c(C)cc5[nH]ncc45)c3C)C2)C1` (single isomer, unassigned) [Example 101b, 1-(6-(4-(5-chloro-6-methyl-1H-indazol-4-yl)-3-(4,4-dimethyl-6,7-dihydropyrazolo[1,5-a]pyrazin-5(4H)-yl)-5-methyl-1H-pyrazol-1-yl)-2-azaspiro[3.3]heptan-2-yl)prop-2-en-1-one] it is 0.103 µM.
The same measure for `C=CC(=O)N1CC2(CC(n3nc(N4CCC(CN5C[C@@H]6OCCO[C@@H]6C5)CC4(C)C)c(-c4c(Cl)c(Cl)cc5[nH]ncc45)c3C)C2)C1` (single isomer, unassigned) [Example 232a]: more than 5 µM; for `C=CC(=O)N1CC2(CC(n3nc(N4CCN(C5COC5)C[C@]4(C)CC)c(-c4c(Cl)c(C)cc5[nH]nc(N)c45)c3C)C2)C1` (single isomer, unassigned) [Example 158b]: 0.172 µM.
The figure for `C=CC(=O)N1CC2(CC(n3nc(N4CC[C@@H](CN5CC6COCC(C5)O6)CC4(C)C)c(-c4c(Cl)c(Cl)cc5[nH]ncc45)c3C)C2)C1` (single isomer, unassigned) [Example 308a] is 0.747 µM; for `C=CC(=O)N1CC2(CC(n3nc(N4CC[C@@H](CN5CC6(CCN(C(C)=O)C6)C5)CC4(C)C)c(-c4c(Cl)c(Cl)cc5[nH]ncc45)c3C)C2)C1` (single isomer, unassigned) [Example 268a] it is 0.789 µM; for `C=CC(=O)N1CC2(CC(n3nc(N4CCN(C5CCOCC5)C[C@@]4(C)C(F)F)c(-c4c(Cl)c(C)cc5[nH]ncc45)c3C)C2)C1` (single isomer, unassigned) [Example 146b] it is 0.031 µM.
As for `C=CC(=O)N1CC2(CC(n3nc(N4CCC(CN5CC6CC(C5)O6)CC4(C)C)c(-c4c(Cl)c(Cl)cc5[nH]ncc45)c3C)C2)C1` (single isomer, unassigned) [Example 229a, 1-(6-(3-(4-((6-oxa-3-azabicyclo[3.1.1]heptan-3-yl)methyl)-2,2-dimethylpiperidin-1-yl)-4-(5,6-dichloro-1H-indazol-4-yl)-5-methyl-1H-pyrazol-1-yl)-2-azaspiro[3.3]heptan-2-yl)prop-2-en-1-one], the IC50 is more than 5 µM.
For `C=CC(=O)N1CC2(CC(n3nc(N4C5CCC4COC5)c(-c4c(Cl)c(C)cc5[nH]ncc45)c3C)C2)C1` (single isomer, unassigned) [Example 112a], the IC50 is more than 5 µM.
The same measure for `C=CC(=O)N1CC2(CC(n3nc(N4CCC(CN5CCN(C)C(=O)C5)CC4(C)C)c(-c4c(Cl)c(Cl)cc5[nH]ncc45)c3C)C2)C1` (single isomer, unassigned) [Example 239a, 4-((1-(1-(2-acryloyl-2-azaspiro[3.3]heptan-6-yl)-4-(5,6-dichloro-1H-indazol-4-yl)-5-methyl-1H-pyrazol-3-yl)-2,2-dimethylpiperidin-4-yl)methyl)-1-methylpiperazin-2-one]: 1.6 µM.
Regarding `C=CC(=O)N1CC2(CC(n3nc(N4CC[C@@H](CN5C[C@@H]6CS(=O)(=O)C[C@@H]6C5)CC4(C)C)c(-c4c(Cl)c(Cl)cc5[nH]ncc45)c3C)C2)C1` (single isomer, unassigned) [Example 294b], the IC50 was determined as 0.01 µM.
On to `[2H]C([2H])([2H])c1c(-c2c(Cl)c(Cl)cc3[nH]ncc23)c(N2CC[C@@H](CN3CCOCC3)CC2(C)C)nn1C1CC2(C1)CN(C(=O)C=C)C2` (single isomer, unassigned) [Example 224a], for which the concentration for half-maximal inhibition (IC50) was more than 5 µM.
In the case of `C=CC(=O)N1CC2(CC(n3nc(N4CCN(C(C)=O)CC4)c(-c4c(Cl)ccc5[nH]ncc45)c3C)C2)C1C` (single isomer, unassigned) [Example 196b, 1-(6-(3-(4-acetylpiperazin-1-yl)-4-(5-chloro-1H-indazol-4-yl)-5-methyl-1H-pyrazol-1-yl)-1-methyl-2-azaspiro[3.3]heptan-2-yl)prop-2-en-1-one], the IC50 was 9 µM.
The figure for `C=CC(=O)N1CC2(CC(n3nc(N4CC[C@@H](CN5CCC[C@H]5C(=O)N(C)C)CC4(C)C)c(-c4c(Cl)c(Cl)cc5[nH]ncc45)c3C)C2)C1` (single isomer, unassigned) [Example 313b] is 0.006 µM; for `C=CC(=O)N1CC2(CC(n3nc(N4CCN(Cc5ccccc5)CC45CCC5)c(-c4c(Cl)c(C)cc5[nH]ncc45)c3C)C2)C1` (single isomer, unassigned) [Example 100b, 1-(6-(3-(8-benzyl-5,8-diazaspiro[3.5]nonan-5-yl)-4-(5-chloro-6-methyl-1H-indazol-4-yl)-5-methyl-1H-pyrazol-1-yl)-2-azaspiro[3.3]heptan-2-yl)prop-2-en-1-one] it is 0.086 µM.
As for `C=CC(=O)N1CC2(CC(n3nc(N4CCC(CN5CCOCC5)CC4(C)COC)c(-c4c(Cl)c(Cl)cc5[nH]ncc45)c3C)C2)C1` (single isomer, unassigned) [Example 221a, 1-(6-(4-(5,6-dichloro-1H-indazol-4-yl)-3-(2-(methoxymethyl)-2-methyl-4-(morpholinomethyl)piperidin-1-yl)-5-methyl-1H-pyrazol-1-yl)-2-azaspiro[3.3]heptan-2-yl)prop-2-en-1-one], the IC50 came to 0.005 µM.
